Data as given in patent US9303019B2, “Amino-pyrroline derivatives, and use thereof in the prevention and/or treatment of metabolic syndrome” (UNIVERSITE DE STRASBOURG, priority 2012, dated 2016).
Where a name gives a salt, the structure may show the parent alone.

Key:
I1 receptor [1] = target: I1 receptor (Homo sapiens, UniProt Q9Y2I1); assay: Specific binding assay of the I1 receptor on human platelets with [125I]LNP 911
Description: Binding assays were performed at 37° C. using [^125I]LNP 911 as radioligand following the general procedure described but adapted to washed whole platelets (Greney, H.; Urosevic, D.; Schann, S.; Dupuy, L.; Bruban, V.; Ehrhardt, J,-D.; Bousquet, P.; Dontenwill, M. [^125I]2-(2-Chloro-4-iodo-phenylamino)-5-methyl-pyrroline (LNP911), a High-Affinity Radioligand Selective for I1 Imidazoline Receptors. Mol. Pharmacol. 2002, 62, 181-191).
Incubation was initiated through the addition of 900 to 950 μl of platelet suspension at a concentration of 500000/μl in a final volume of 1 ml Tyrode albumin and was performed at 37° C. for 5 min (equilibrium conditions). The competitive assays were conducted using a single concentration of radioligand ([…], 200 000 cpm), in the presence of increasing concentrations of suitable non-labelled ligand. Non-specific binding was determined by the binding of [^125I]LNP 911 in the presence of 100 nM of non-labelled LNP 911 and represented about 10% of total radioactivity when […] of [^125I]LNP 911 were used.
The reaction was halted by rapid vacuum filtration through GF/C fibre glass filters followed by five rapid washings of the filters with 3 ml of ice-cold Tyrode ([…], pH 7.35). Radioactivity was measured using a gamma counter (Wallac 1410).
(§1) The competitive assays were analyzed by non-linear regression using the GraphPad programme.
(§2) Ki values were determined using the method described by Cheng and Prussof (Cheng, Y. C.; Prusoff, W. H. Relationship between the Inhibition Constant (Ki) and the Concentration of Inhibitor which causes 50 percent Inhibition (I50) of an Enzymatic Reaction. Biochem. Pharmacol. 1973, 22, 3099-3108).

α2-adrenergic receptors = assay: Binding assay of the α2-adrenergic receptors on CHO cell membranes with [3H]RX821002; parameters: species or system human; conditions: CHO cells
Description: These membranes (30 μg proteins/ml for CHO-hα2A and CHO-hα2B, 100 μg protein/ml for CHO-hα2C) were incubated for 60 min at ambient temperature in binding buffer (33 mM Tris-HCl, 1 mM EDTA, pH 7.5) in a final volume of 500 μL containing 0.8 or 1 or 2 nM [^3H]RX821002 respectively for the adrenergic receptors hα2A, hα2B and hα2C.
Incubation was halted by rapid vacuum filtration through GF/C glass fibre filters followed by three successive washings in ice-cold binding buffer.
Non-specific binding was determined using 10 μM phentolamine.
as §1, §2

I1 receptor [2] = target: I1 receptor (Mus musculus, UniProt Q80TM9); assay: Competitive binding to [125I]-PIC in membranes of 3T3 adipocytes; parameters: species or system murine; conditions: 3T3 cell membranes
Chain of I1 receptor (Mus musculus, UniProt Q80TM9) (Q80TM9 whole entry, looked up): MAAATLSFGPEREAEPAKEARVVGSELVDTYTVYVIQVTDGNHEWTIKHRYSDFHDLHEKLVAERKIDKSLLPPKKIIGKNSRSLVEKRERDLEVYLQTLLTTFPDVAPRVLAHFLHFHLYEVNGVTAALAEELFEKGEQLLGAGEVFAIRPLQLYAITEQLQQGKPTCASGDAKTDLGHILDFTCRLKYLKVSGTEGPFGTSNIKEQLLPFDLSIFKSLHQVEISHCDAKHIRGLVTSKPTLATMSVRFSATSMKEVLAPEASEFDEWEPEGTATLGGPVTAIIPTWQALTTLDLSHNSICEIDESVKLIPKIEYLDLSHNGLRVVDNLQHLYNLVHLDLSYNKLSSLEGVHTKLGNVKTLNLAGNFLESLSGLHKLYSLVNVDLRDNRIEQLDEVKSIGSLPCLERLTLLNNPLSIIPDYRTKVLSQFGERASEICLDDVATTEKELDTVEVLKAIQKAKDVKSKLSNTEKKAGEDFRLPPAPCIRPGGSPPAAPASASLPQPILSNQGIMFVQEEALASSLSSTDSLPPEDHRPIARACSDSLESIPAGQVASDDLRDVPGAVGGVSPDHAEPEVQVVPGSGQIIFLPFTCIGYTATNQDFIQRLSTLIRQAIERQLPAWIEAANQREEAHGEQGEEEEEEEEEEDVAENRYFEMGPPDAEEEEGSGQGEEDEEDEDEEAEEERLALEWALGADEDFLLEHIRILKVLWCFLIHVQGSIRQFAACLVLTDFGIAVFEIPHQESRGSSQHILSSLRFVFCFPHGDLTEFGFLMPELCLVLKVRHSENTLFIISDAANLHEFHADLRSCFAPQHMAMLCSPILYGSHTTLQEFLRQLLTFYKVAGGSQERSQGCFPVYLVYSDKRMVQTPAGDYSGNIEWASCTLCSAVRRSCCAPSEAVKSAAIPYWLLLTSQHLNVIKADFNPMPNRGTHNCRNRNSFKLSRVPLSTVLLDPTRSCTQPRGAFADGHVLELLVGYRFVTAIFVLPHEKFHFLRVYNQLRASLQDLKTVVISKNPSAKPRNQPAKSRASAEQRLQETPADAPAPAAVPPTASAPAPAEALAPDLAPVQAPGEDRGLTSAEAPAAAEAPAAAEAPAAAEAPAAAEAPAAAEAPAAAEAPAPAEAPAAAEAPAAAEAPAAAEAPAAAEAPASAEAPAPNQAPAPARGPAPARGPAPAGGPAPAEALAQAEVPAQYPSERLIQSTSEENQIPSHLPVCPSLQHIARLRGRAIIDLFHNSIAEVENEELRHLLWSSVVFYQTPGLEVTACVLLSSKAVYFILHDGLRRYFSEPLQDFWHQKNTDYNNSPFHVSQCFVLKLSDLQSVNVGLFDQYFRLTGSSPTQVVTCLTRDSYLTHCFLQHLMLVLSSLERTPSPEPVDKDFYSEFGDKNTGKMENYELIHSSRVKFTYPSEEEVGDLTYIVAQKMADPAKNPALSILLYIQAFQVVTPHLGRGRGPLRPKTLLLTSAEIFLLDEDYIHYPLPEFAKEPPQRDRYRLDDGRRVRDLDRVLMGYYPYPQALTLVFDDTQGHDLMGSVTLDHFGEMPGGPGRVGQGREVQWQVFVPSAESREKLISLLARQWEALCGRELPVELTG
Description: The adipocytes were washed twice with ice-cold PBS, harvested and homogenized in 25 mM Tris-HCl buffer, pH 7.5, 1 mM EDTA. The homogenates were centrifuged at 20,000×g for 15 min at 4° C. and the supernatant stored at −80° C. until use. The residues were re-suspended in 25 mM Tris-HCl buffer, pH 7.5, 1 mM EDTA and stored at −80° C. […]
The reaction was halted by rapid vacuum filtration through GF/B fibre glass filters treated with 0.3% PEI using filtering equipment of Brandel® type, followed by three rapid washings of the filters using 3 ml of ice-cold 50 mM Tris-HCl buffer, pH 7.4. The radioactivity retained on the dried filters was determined using a Minaxi gamma counter (Packard, Meriden, CT, USA). Non-specific binding was determined by [^125I]PIC binding in the presence of 10 μM PIC and represented about 43% of total radioactivity.

3T3-L1 adipocytes = assay: Secretion of adiponectin by differentiated 3T3-L1 adipocytes (ELISA); type: cell-based, murine
Description: 3T3-L1 murine preadipocytes were cultured to confluence at 37° C. in DMEM medium containing 4.5 g/litre of D-glucose, 10% FCS and antibiotics. At confluence, differentiation of the 3T3-L1 adipocytes was initiated through the addition over 48 h of a mixture containing 100 μM methyl-isobutylxanthine, 100 nm dexamethasone and 175 nM insulin. The cells were then passaged every 2-3 days in DMEM, 10% FCS and 175 nM insulin. More than 95% of cells had the phenotype of mature adipocytes 10 days after confluence was reached.
To determine the secretion of adiponectin by mature adipocytes, differentiated 3T3-L1 adipocytes (10 days after confluence) were placed in culture in 12-well plates and washed three times with DMEM, then cultured for 6 h in DMEM alone, in the absence or presence of 3 μM of compound 1. In some wells the antagonist selective for the imidazoline receptors I1, efaroxan, was added (100 μM) 30 min before exposure to compound 1.
The culture medium was then recovered, centrifuged for 3 min at 10 000 g to remove cell contaminants, and the supernatant was stored at −80° C. until use. After two washings in cold PBS, the adipocytes were collected in PBS, homogenized and stored at −80° C. An aliquot of adipocyte homogenate was stored for protein determination. The adiponectin was measured using an ELISA kit following the manufacturer's recommendations. The adiponectin concentration was normalized with the cell protein content.

Chain of I1 receptor (Homo sapiens, UniProt Q9Y2I1) (Q9Y2I1 2-1504 limits assumed): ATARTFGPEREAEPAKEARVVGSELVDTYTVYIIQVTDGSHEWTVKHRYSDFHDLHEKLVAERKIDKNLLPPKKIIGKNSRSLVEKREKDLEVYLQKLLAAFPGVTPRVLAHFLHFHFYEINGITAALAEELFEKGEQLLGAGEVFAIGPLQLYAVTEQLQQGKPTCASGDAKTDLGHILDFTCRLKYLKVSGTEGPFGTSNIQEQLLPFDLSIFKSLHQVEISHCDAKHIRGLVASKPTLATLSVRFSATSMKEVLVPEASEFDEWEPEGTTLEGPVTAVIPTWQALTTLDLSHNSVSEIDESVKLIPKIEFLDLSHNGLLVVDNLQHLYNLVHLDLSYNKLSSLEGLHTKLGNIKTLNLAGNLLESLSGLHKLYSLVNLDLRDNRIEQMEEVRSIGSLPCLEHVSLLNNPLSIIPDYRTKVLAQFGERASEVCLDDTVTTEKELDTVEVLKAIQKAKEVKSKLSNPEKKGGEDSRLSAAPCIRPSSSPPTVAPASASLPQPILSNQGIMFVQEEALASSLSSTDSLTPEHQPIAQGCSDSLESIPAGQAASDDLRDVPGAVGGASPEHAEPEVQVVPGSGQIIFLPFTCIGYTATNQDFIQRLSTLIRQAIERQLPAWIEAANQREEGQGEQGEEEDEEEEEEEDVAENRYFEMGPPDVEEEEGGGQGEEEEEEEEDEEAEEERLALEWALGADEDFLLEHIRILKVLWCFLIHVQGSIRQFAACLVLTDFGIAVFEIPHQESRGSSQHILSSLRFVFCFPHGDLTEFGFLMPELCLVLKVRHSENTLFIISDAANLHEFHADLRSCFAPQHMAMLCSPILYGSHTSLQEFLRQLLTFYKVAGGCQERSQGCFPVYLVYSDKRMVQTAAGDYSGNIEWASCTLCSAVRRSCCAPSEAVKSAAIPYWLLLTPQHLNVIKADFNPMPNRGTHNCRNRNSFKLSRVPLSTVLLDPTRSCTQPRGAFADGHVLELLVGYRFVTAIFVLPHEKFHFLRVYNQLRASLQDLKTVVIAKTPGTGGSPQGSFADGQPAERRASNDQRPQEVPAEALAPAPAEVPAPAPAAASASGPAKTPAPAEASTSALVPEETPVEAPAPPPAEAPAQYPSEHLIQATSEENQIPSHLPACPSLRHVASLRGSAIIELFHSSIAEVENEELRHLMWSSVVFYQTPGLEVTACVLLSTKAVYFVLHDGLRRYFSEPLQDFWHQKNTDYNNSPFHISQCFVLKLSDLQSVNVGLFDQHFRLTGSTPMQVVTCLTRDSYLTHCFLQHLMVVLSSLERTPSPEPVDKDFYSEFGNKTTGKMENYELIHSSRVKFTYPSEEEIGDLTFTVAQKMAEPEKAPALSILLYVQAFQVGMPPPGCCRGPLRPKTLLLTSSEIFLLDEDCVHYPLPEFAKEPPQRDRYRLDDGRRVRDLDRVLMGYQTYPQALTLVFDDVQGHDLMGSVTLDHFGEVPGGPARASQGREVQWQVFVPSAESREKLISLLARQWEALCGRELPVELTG

SMILES | Ki (I1 receptor [1]) | Ki (α2-adrenergic receptors) | further results
CC1CCC(Nc2cccc3c2CCC3)=N1 (stereo not drawn) [Compound 5, Indan-4-yl-(5-methyl-4,5-dihydro-3H-pyrrol-2-yl)-amine hydrochloride] | 19 nM | > 10000 nM | 
CC1CN=C(Nc2ccc(Cl)c3c2CCC3)C1 (stereo not drawn) [Compound 8, (7-Chloro-indan-4-yl)-(4-methyl-4,5-dihydro-3H-pyrrol-2-yl)-amine hydrochloride] | 0.22 nM | > 10000 nM | 
Cc1ccc(NC2=NCC(C)C2)c2c1CCC2 (stereo not drawn) [Compound 9, (7-Methyl-indan-4-yl)-(4-methyl-4,5-dihydro-3H-pyrrol-2-yl)-amine hydrochloride] |  | > 10000 nM | 
CC1CCC(Nc2ccccc2Cl)=N1.Cl (stereo not drawn) [Compound 13, (2-Chlorophenyl)-(5-methyl-4,5-dihydro-3H-pyrrol-2-yl)-amine hydrochloride] |  | > 10000 nM | melting point: 173 to 174 °C
CC1CCC(Nc2ccc(Cl)c3c2CCC3)=N1 (stereo not drawn) [Compound 20, (7-Chloro-indan-4-yl)-(5-methyl-4,5-dihydro-3H-pyrrol-2-yl)-amine hydrochloride] | 2.8 nM | > 10000 nM | 
Clc1cccc(Cl)c1N=C1NCCN1 [clonidine] |  |  | share of total sites with high affinity (I1 receptor [2]): 57%
CCC1(C2=NCCN2)Cc2ccccc2O1 (stereo not drawn) [efaroxan] |  |  | secretion of adiponectin, efaroxan alone (3T3-L1 adipocytes; 100 μmol/l, control 212.6±19.1): 175.2±15.5 ng/ml/mg of proteins; secretion of adiponectin, pre-incubation with efaroxan before compound 1 (3T3-L1 adipocytes; efaroxan 100 μmol/l 30 min before compound 1 3 μmol/l, vs. 378±38 with compound 1 alone): 236±19.2 ng/ml/mg of proteins
